Results taken from US7943628B2, “Pyrimidine derivatives” (Pfizer Limited, priority 2005, dated 2011).

What was measured:
histamine H4 receptor [1] = molecular target: T1, histamine H4 receptor (Homo sapiens, UniProt Q9H3N8); experiment: H4 binding, method 1 ([3H]-histamine filtration binding on CHO cell membranes); details: H4 binding, method 1; Ki calculated from IC50 (Cheng-Prussoff)
T1 construct: expressed in transfected cells; host or cells: CHO cells
Outline: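 Membranes from CHO cells expressing human H4 receptor (20-35 μg/well) incubated 90 min at room temperature with 3 nM [3H]-histamine in 50 mM Tris-HCl pH 7.4, ± competitor. Bound label separated by filtration on PEI-soaked GF/B filters and counted by scintillation; non-specific binding with 10 μM JNJ7777120.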

histamine H4 receptor [2] = molecular target: T1, histamine H4 receptor; experiment: H4 binding, method 2 ([3H]-histamine binding with Ysi WGA beads on CHO cell membranes); details: H4 binding, method 2, Ki calculated from IC50 (Cheng-Prussoff)
Outline: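 Membranes from H4-expressing CHO cells were pre-bound to WGA SPA beads, then incubated 90 min at room temperature with 6.5 nM [3H]-histamine in 50 mM Tris-HCl pH 7.4, with or without competitor. Non-specific binding defined with 10 μM JNJ7777120; bound label read by scintillation counting.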

T1 sequence (Q9H3N8 whole entry): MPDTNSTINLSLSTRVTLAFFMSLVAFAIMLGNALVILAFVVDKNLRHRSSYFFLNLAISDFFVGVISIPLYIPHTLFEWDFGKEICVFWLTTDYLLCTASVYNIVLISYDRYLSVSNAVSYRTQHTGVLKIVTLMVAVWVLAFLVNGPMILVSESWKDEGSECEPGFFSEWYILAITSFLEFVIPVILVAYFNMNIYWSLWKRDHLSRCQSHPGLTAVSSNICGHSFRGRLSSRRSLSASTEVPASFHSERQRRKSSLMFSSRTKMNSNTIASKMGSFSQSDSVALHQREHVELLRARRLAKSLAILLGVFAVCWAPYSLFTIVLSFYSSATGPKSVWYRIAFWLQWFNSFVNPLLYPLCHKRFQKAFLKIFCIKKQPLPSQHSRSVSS

SMILES | Ki (histamine H4 receptor [1]) [nM] | Ki (histamine H4 receptor [2]; read-out: Method 2 (Ki (nM))) [nM] | Ki (histamine H4 receptor [2]; Method 2 (Ki (nM))) [nM]
CNC1CN(c2cc(NCC3CC3)nc(N)n2)C1 [Example 63, N^4-Cyclopropylmethyl-6-(3-methylamino-azetidin-1-yl)-pyrimidine-2,4-diamine] | 1.95 | 12.2 | 
CC(C)(C)CNc1cc(N2C[C@H]3CCCN[C@H]3C2)nc(N)n1 (racemic) [Example 30, N^4-(2,2-Dimethylpropyl)-6-[(4aR*,7aR*)-octahydro-6H-pyrrolo[3,4-b]pyridin-6-yl] pyrimidine-2,4-diamine] | 3.06 |  | 19.3
